In brackets after ≈: the same amount, converted by molar mass. Where a SMILES comes first, the peptide text is derived from it.
Experiments:
[1] = test system: S. aureus ATCC 25923 biofilm formation; assay type: cell-based, Staphylococcus aureus; conditions: ATCC 25923, 24 h
Outline: (§1)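 Broth microdilution (CLSI), 1–512 μg/mL, 37 °C; S. aureus 0.5 × 10^5 CFU/mL MHB 18 h; C. albicans 2 × 10^3 CFU/mL RPMI-1640 24 h; MIC = no visible growth. Biofilm: 24 h preformed, PBS-washed, compound 24 h (MBEC) or compound + inoculum 24 h (MBIC); resazurin 1 h, cut-off ≤10%.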

[2] = test system: S. aureus ATCC 25923 biofilm; assay type: cell-based, Staphylococcus aureus; conditions: ATCC 25923, 24 h
Outline: as §1

S. aureus ATCC 25923 = assay type: cell-based, Staphylococcus aureus; conditions: ATCC 25923, 18 h
Outline: as §1

[3] = test system: E. faecalis PCM 2673 biofilm formation; assay type: cell-based, Enterococcus faecalis; conditions: 24 h
Outline: (§2)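 Broth microdilution per CLSI, 1–512 μg/mL; bacteria 0.5 × 10^5 CFU/mL in MHB, 37 °C 18 h; C. albicans 2 × 10^3 CFU/mL in RPMI-1640, 24 h; MIC = lowest concentration visibly inhibiting growth. MBEC: 24-h biofilms, PBS-rinsed, compound 24 h at 37 °C, resazurin read after 1 h. MBIC: compound with inoculum 24 h, then resazurin 1 h; cut-off ≤10% reduction versus controls.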

[4] = test system: E. faecalis PCM 2673 biofilm; assay type: cell-based, Enterococcus faecalis; conditions: 24 h
Outline: as §2

E. faecalis PCM 2673 = assay type: cell-based, Enterococcus faecalis; conditions: PCM 2673, 18 h
Outline: as §2

[5] = test system: E. coli ATCC 25922 biofilm formation; assay type: cell-based, Escherichia coli; conditions: ATCC 25922, 24 h
Outline: as §2

[6] = test system: E. coli ATCC 25922 biofilm; assay type: cell-based, Escherichia coli; conditions: ATCC 25922, 24 h
Outline: as §2

E. coli ATCC 25922 = assay type: cell-based, Escherichia coli; conditions: ATCC 25922, 18 h
Outline: as §2

[7] = test system: P. aeruginosa ATCC 9027 biofilm formation; assay type: cell-based, Pseudomonas aeruginosa; conditions: ATCC 9027, 24 h
Outline: as §2

[8] = test system: P. aeruginosa ATCC 9027 biofilm; assay type: cell-based, Pseudomonas aeruginosa; conditions: ATCC 9027, 24 h
Outline: as §2

P. aeruginosa ATCC 9027 = assay type: cell-based, Pseudomonas aeruginosa; conditions: ATCC 9027, 18 h
Outline: as §2

[9] = test system: C. albicans ATCC 10231 biofilm formation; assay type: cell-based, Candida albicans; conditions: ATCC 10231, 24 h
Outline: as §1

[10] = test system: C. albicans ATCC 10231 biofilm; assay type: cell-based, Candida albicans; conditions: ATCC 10231, 24 h
Outline: as §1

C. albicans ATCC 10231 = assay type: cell-based, Candida albicans; conditions: ATCC 10231, 24 h
Outline: as §1

[11] = test system: human red blood cells (RBCs); assay: Hemolysis assay; assay type: cell-based; conditions: red cells of human, 1 h
Outline: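 Fresh EDTA-anticoagulated human erythrocytes were PBS-washed and used at 4% (v/v) with peptide at 1–256 μg/mL in PBS for 1 h at 37 °C. Hemoglobin release in the supernatant was read at 540 nm. PBS set 0% and 1% Triton X-100 set 100% hemolysis; run in triplicate.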

in vitro = in vitro ADME; conditions: bovine, serum
Outline: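 Peptides incubated in 25% (v/v) fetal bovine serum in PBS at 37 °C, quenched with ice-cold acetonitrile at t0 and 6 h. Intact peptide quantified by RP-HPLC-MS in selected ion recording mode; % remaining = peak area at 6 h / peak area at t0.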

[12] = assay type: physicochemical; conditions: pH 7.4

| Structure (SMILES) | MBIC, S. aureus ATCC 25923 [1] | MBEC, S. aureus ATCC 25923 [2] | MIC, S. aureus ATCC 25923 (S. aureus ATCC 25923) | MBIC, E. faecalis PCM 2673 [3] | MBEC, E. faecalis PCM 2673 [4] | MIC, E. faecalis PCM 2673 (E. faecalis PCM 2673) | MBIC, E. coli ATCC 25922 [5] | MBEC, E. coli ATCC 25922 [6] | MIC, E. coli ATCC 25922 (E. coli ATCC 25922) | MBIC, P. aeruginosa ATCC 9027 [7] | MBEC, P. aeruginosa ATCC 9027 [8] | MBIC, C. albicans ATCC 10231 [9] | MBEC, C. albicans ATCC 10231 [10] | MIC, C. albicans ATCC 10231 (C. albicans ATCC 10231) | Percentage of hemolysis at 1 μg/mL [11] | Percentage of hemolysis at 2 μg/mL [11] | Percentage of hemolysis at 4 μg/mL [11] | Percentage of hemolysis at 8 μg/mL [11] | Percentage of hemolysis at 16 μg/mL [11] | Percentage of hemolysis at 32 μg/mL [11] | further results |
| --- | --- | --- | --- | --- | --- | --- | --- | --- | --- | --- | --- | --- | --- | --- | --- | --- | --- | --- | --- | --- | --- |
| CC[C@H](C)[C@H](NC(=O)[C@H](C)NC(=O)[C@H](CCCCN)NC(=O)[C@@H](NC(=O)[C@@H](NC(=O)[C@H](CC(=O)O)NC(=O)[C@H](Cc1ccccc1)NC(=O)[C@H](CC(C)C)NC(=O)CN)[C@@H](C)CC)[C@@H](C)CC)C(=O)N[C@@H](C)C(=O)N[C@@H](CCC(=O)O)C(=O)N[C@@H](CO)C(=O)N[C@@H](Cc1ccccc1)C(N)=O [Peptide K8A] (H-GLFDIIKAIAESF-NH2) | > 512 µg/mL | > 512 µg/mL | > 512 µg/mL | 128 µg/mL | > 512 µg/mL | 64 µg/mL (≈ 45 µM) | 32 µg/mL | > 512 µg/mL | 128 µg/mL (≈ 90 µM) | > 512 µg/mL | > 512 µg/mL | 4 µg/mL | > 512 µg/mL | 64 µg/mL (≈ 45 µM) | 0.1% | 0.0% | 0.0% | 0.0% | 0.0% | 5.5% | MIC, P. aeruginosa ATCC 9027 (P. aeruginosa ATCC 9027): > 512 µg/mL; Percentage of hemolysis at 64 μg/mL [11]: 16.1%; Percentage of hemolysis at 128 μg/mL [11]: 49.3%; Percentage of hemolysis at 256 μg/mL [11]: 89.6%; remaining at 6 h, 0.125 mg/mL (in vitro): 36%; Solubility in surfactant-free phosphate buffer [12]: poor solubility |
| CC[C@H](C)[C@H](NC(=O)[C@H](CCCCN)NC(=O)[C@H](CCCCN)NC(=O)[C@@H](NC(=O)[C@@H](NC(=O)[C@H](CC(=O)O)NC(=O)[C@H](Cc1ccccc1)NC(=O)[C@H](CC(C)C)NC(=O)CN)[C@@H](C)CC)[C@@H](C)CC)C(=O)N[C@@H](C)C(=O)N[C@@H](CCC(=O)O)C(=O)N[C@@H](C)C(=O)N[C@@H](Cc1ccccc1)C(N)=O [Peptide S12A] (H-GLFDIIKKIAEAF-NH2) | 32 µg/mL | > 512 µg/mL | 32 µg/mL (≈ 21.9 µM) | 128 µg/mL | 128 µg/mL | 64 µg/mL (≈ 43.7 µM) | 32 µg/mL | > 512 µg/mL | 64 µg/mL (≈ 43.7 µM) | >512 µg/mL | > 512 µg/mL | 2 µg/mL | 256 µg/mL | 32 µg/mL (≈ 21.9 µM) | 0.0% | 0.0% | 0.0% | 0.0% | 1.2% | 6.5% | Percentage of hemolysis at 64 μg/mL [11]: 12.0%; Percentage of hemolysis at 128 μg/mL [11]: 15.4%; Percentage of hemolysis at 256 μg/mL [11]: 23.5%; remaining at 6 h, 0.125 mg/mL (in vitro): 77%; Solubility in surfactant-free phosphate buffer [12]: poor solubility |
| CC[C@H](C)[C@H](NC(=O)[C@H](CCCCN)NC(=O)[C@H](C)NC(=O)[C@@H](NC(=O)[C@@H](NC(=O)[C@H](CC(=O)O)NC(=O)[C@H](Cc1ccccc1)NC(=O)[C@H](CC(C)C)NC(=O)CN)[C@@H](C)CC)[C@@H](C)CC)C(=O)N[C@@H](C)C(=O)N[C@@H](CCC(=O)O)C(=O)N[C@@H](CO)C(=O)N[C@@H](Cc1ccccc1)C(N)=O [Peptide K7A] (H-GLFDIIAKIAESF-NH2) | > 512 µg/mL | > 512 µg/mL | > 512 µg/mL | > 512 µg/mL | > 512 µg/mL | 512 µg/mL (≈ 360 µM) | 64 µg/mL | > 512 µg/mL | > 512 µg/mL | > 512 µg/mL | > 512 µg/mL | 4 µg/mL | > 512 µg/mL | > 512 µg/mL | 0.2% | 0.1% | 0.0% | 0.0% | 0.1% | 3.4% | MIC, P. aeruginosa ATCC 9027 (P. aeruginosa ATCC 9027): > 512 µg/mL; Percentage of hemolysis at 64 μg/mL [11]: 0.7%; Percentage of hemolysis at 128 μg/mL [11]: 3.0%; Percentage of hemolysis at 256 μg/mL [11]: 4.6%; remaining at 6 h, 0.125 mg/mL (in vitro): 59%; Solubility in surfactant-free phosphate buffer [12]: poor solubility |
